Measured values reported in patent US8536202B2, “Triazole-substituted anthranilamides as pesticides” (Bayer Cropscience AG, priority 2010, dated 2013).
Like-named read-outs stand apart in the source and are kept apart here.

How the values were obtained:
[1] = system: larvae of the mustard beetle (Phaedon cochleariae); assay: Phaedon test (PHAECO spray treatment); assay type: in vivo; settings: 168 h, read-out: activity in %
Method in brief: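 Compound dissolved in acetone/dimethylformamide with alkylaryl polyglycol ether emulsifier, then diluted with emulsifier-containing water to test concentration for spray treatment of Phaedon cochleariae larvae. Activity scored after 7 days as % larvae killed (100% = all dead, 0% = none).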

[2] = system: two-spotted spider mite (Tetranychus urticae); assay: Tetranychus test, OP-resistant (TETRUR spray treatment); assay type: in vivo; settings: 100 g/ha, after 6 days
Protocol: (§1) Solvents: 78.0 parts by weight of acetone • • 1.5 parts by weight of dimethylformamide
(§2) Emulsifier: 0.5 part by weight of alkylaryl polyglycol ether
An appropriate preparation of active compound is prepared by mixing 1 part by weight of active compound with the stated amounts of solvent and emulsifier and diluting the concentrate with emulsifier-containing water to the desired concentration. Leaf discs of French bean (Phaseolus vulgaris) infested by all stages of the two-spotted spider mite (Tetranychus urticae) are sprayed with a preparation of active compound at the desired concentration.
After 6 days, the activity in % is ascertained. Here, 100% means that all of the spider mites have been killed; 0% means that no spider mites have been killed.

[3] = log P determination by HPLC on reversed-phase columns (EEC Directive 79/831 Annex V.A8); assay type: physicochemical; settings: pH 2.7
Method in brief: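 log P from reversed-phase LC-MS retention at pH 2.7, 0.1% formic acid water/acetonitrile gradient 10–95% acetonitrile. Calibrated against C3–C16 unbranched alkan-2-ones, interpolating linearly between adjacent alkanones.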

[4] = system: green peach aphid (Myzus persicae); assay: Myzus test (MYZUPE spray treatment), Use Example 4; assay type: in vivo; settings: 144 h, read-out: activity in %
Method in brief: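 Compound was formulated in acetone/dimethylformamide with alkylaryl polyglycol ether emulsifier and diluted in emulsifier-containing water. It was sprayed onto Chinese cabbage leaf discs infested with all stages of Myzus persicae. Mortality (%) was scored after 6 days, where 100% means all aphids killed.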

[5] = system: caterpillars of the armyworm (Spodoptera frugiperda); assay: Spodoptera frugiperda test (SPODFR spray treatment); assay type: in vivo; settings: 168 h, read-out: activity in %
Method in brief: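 Maize leaf discs sprayed with compound diluted in emulsifier-containing water (acetone/DMF solvent, alkylaryl polyglycol ether emulsifier), dried, then infested with armyworm caterpillars. Kill scored after 7 days as % mortality, 100% = all caterpillars dead, 0% = none.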

adult Musca domestica = assay: Musca domestica test (MUSCDO); assay type: in vivo; settings: 48 h, read-out: kill in %
Protocol: (§3) Solvent: dimethyl sulphoxide
An appropriate preparation of active compound is prepared by mixing 10 mg of active compound with 0.5 ml of dimethyl sulphoxide and diluting the concentrate with water to the desired concentration. Vessels containing a sponge treated with the preparation of active compound at the desired concentration are populated with adult Musca domestica.
After 2 days, the kill in % is ascertained. Here, 100% means that all of the flies have been killed; 0% means that no flies have been killed.

Lucilia cuprina larvae = assay: Lucilia cuprina test (LUCICU); assay type: in vivo; settings: 48 h, read-out: kill in %
Protocol: as §3
An appropriate preparation of active compound is prepared by mixing 10 mg of active compound with 0.5 ml of dimethyl sulphoxide and diluting the concentrate with water to the desired concentration.
Vessels containing horse meat treated with the preparation of active compound at the desired concentration are populated with approximately 20 Lucilia cuprina larvae.
After 2 days, the kill in % is ascertained. Here, 100% means that all of the larvae have been killed; 0% means that no larvae have been killed.

Boophilus microplus = Boophilus microplus test (BOOPMI injection); assay type: in vivo; settings: Rhipicephalus microplus, 168 h, 20 μg/animal, after 7 days, read-out: activity in % (no fertile eggs laid)
Protocol: as §3
An appropriate preparation of active compound is prepared by mixing 10 mg of active compound with 0.5 ml of solvent and diluting the concentrate with solvent to the desired concentration. The solution of active compound is injected into the abdomen (Boophilus microplus), and the animals are transferred to dishes and kept in a climatized room. Activity is assessed by deposition of fertile eggs.
After 7 days, the activity in % is assessed. Here, 100% means that none of the ticks has laid fertile eggs.

[6] = system: green peach aphid (Myzus persicae); assay: Myzus test (MYZUPE spray treatment), Use Example 8, comparison with prior art; assay type: in vivo; settings: 100 g/ha, 6 d
Protocol: as §1, §2
An appropriate preparation of active compound is prepared by mixing 1 part by weight of active compound with the stated amounts of solvents and emulsifier and diluting the concentrate with emulsifier-containing water to the desired concentration.
Leaf discs of Chinese cabbage (Brassica pekinensis) infested by all stages of the green peach aphid (Myzus persicae) are sprayed with a preparation of active compound at the desired concentration. After the desired time, the activity in % is ascertained. Here, 100% means that all of the aphids have been killed; 0% means that no aphids have been killed.

[7] = HPLC on reversed-phase columns (C 18), EEC Directive 79/831 Annex V.A8, read-out: logP

Compound	pest or weed control at 100 g/ha ([1]; 100 g/ha, after 7 days)	activity in % [2]	chromatographic logP [3]	pest or weed control at 100 g/ha ([4]; 100 g/ha, after 6 days)	pest or weed control at 100 g/ha ([5]; 100 g/ha, after 7 days)	pest or weed control at 100 ppm (adult Musca domestica)	pest or weed control at 100 ppm (Lucilia cuprina larvae)	pest or weed control at 0.02 mg (Boophilus microplus)	further results
CNC(=O)c1cc(C#N)cc(C)c1NC(=O)c1cc(Cn2ncc(C(C)(C)C)n2)nn1-c1ncccc1Cl [Example 39]	83%	90%	2.89	–	–	–	–	–	–
Cc1cc(C#N)cc(C(=O)NC(C)(C)C)c1NC(=O)c1cc(Cn2cc(C3CC3)nn2)nn1-c1ncccc1Cl [Example 50]	100%	80%	2.57	90%	83%	–	–	–	–
Cc1cc(Cl)cc(C(N)=O)c1NC(=O)c1cc(Cn2ncc(C(F)(C(F)(F)F)C(F)(F)F)n2)nn1-c1ncccc1Cl [Example 263]	100%	–	3.48	80%	100%	100%	100%	100%	–
Cc1cc(C#N)cc(C(=O)NC2(C3CC3)CC2)c1NC(=O)c1cc(Cn2ncc(C(F)(F)F)n2)nn1-c1ncccc1Cl [Example 281]	100%	–	3.37	100%	100%	100%	100%	100%	–
Cc1cc(Cl)cc(C(=O)NC2(C3CC3)CC2)c1NC(=O)c1cc(Cn2ncc(C(F)(F)F)n2)nn1-c1ncccc1Cl [Example 282]	100%	–	3.78	80%	100%	80%	100%	100%	–
CSC[C@H](C)NC(=O)c1cc(I)cc(C)c1NC(=O)c1cc(Cn2cc(C(F)(F)C(F)(F)C(F)(F)F)nn2)nn1-c1ncccc1Cl [Example 321]	–	90%	–	–	–	–	–	–	pest or weed control at 100 g/ha [4]: 100%; pest or weed control at 100 g/ha [1]: 100%; pest or weed control at 100 g/ha [5]: 100%; chromatographic logP [3, 7]: 4.27
Cc1cc(I)cc(C(=O)NC2CC2)c1NC(=O)c1cc(Cn2ncc(C(F)(F)C(F)(F)C(F)(F)F)n2)nn1-c1ncccc1Cl [Example 375]	–	90%	–	–	–	–	–	–	pest or weed control at 100 g/ha [1]: 100%; pest or weed control at 100 g/ha [5]: 100%; chromatographic logP [3, 7]: 4.23
Cc1cc(Cl)cc(C(N)=O)c1NC(=O)c1cc(Cn2cc(C(F)(F)C(F)(F)F)nn2)nn1-c1ncccc1Cl [drawing 449]	–	–	–	–	–	–	–	–	% Activity [6]: 100 6 d %
Cc1cc(Cl)cc(C(N)=O)c1NC(=O)c1cc(Cn2nnc(C(F)(F)C(F)(F)F)n2)nn1-c1ncccc1Cl [reference compound]	–	–	–	–	–	–	–	–	% Activity [6]: 80 6 d %
